Target: Serine/threonine-protein kinase Nek6 (Homo sapiens) (UniProt Q9HC98)
Assay: NEK6 kinase inhibitors, dose response, biochemical, Z'-LYTE FRET, direct format, recombinant human (AID 1671331)
Conditions: Z'-LYTE FRET kinase activity

Chain of Serine/threonine-protein kinase Nek6 (Homo sapiens) (Q9HC98 whole entry, looked up): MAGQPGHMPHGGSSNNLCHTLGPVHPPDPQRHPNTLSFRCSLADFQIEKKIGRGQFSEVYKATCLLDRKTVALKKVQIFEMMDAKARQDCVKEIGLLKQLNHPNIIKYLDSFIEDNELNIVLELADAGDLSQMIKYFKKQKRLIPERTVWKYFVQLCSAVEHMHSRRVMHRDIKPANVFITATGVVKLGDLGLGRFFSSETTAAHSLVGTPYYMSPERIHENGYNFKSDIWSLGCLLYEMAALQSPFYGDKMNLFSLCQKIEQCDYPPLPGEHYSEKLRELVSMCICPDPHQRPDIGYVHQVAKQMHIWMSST

CN1C(=O)C2(Cc3cn(C45CC67SSC(CO)(C(=O)N6C4Nc4ccccc45)N(C)C7=O)c4ccccc34)SSC1(CO)C(=O)N2C (stereo unspecified)
IC50: 59 nM

Reference: PubChem BioAssay AID1671331
